Laboratory results published in patent US9789146B1, “Synthesis of adansonia digitata nanoparticles” (KING SAUD UNIVERSITY, priority 2017, dated 2017).

What was measured:
Assay in all cases: Antimicrobial activity, diffusion agar technique
Assay type in all cases: cell-based
Details in all cases: well diameter 6.0 mm, 100 μl tested
[1] = test system: Aspergillus fumigatus (RCMB 02567)
Method: (§1) The antimicrobial effect of the Adansonia digitata nanoparticles was evaluated against different gram positive and gram negative bacteria as well as fungi. The test was done using the diffusion agar technique and the well diameter was 6.0 mm (100 μl was tested). The mean zone of inhibition in mm±Standard deviation beyond well diameter (6 mm) produced on a range of environmental and clinically pathogenic microorganisms.

[2] = test system: Streptococcus pneumoniae (RCMB 010011)
Method: as §1

[3] = test system: Bacillis subtilis (RCMB 010068)
Method: as §1

[4] = test system: Escherichia coli (RCMB 010054)
Method: as §1

## C[C@@H]1[C@H](O)[C@@H](C)/C=C/C=C/C=C/C=C/C=C/C=C/C=C/[C@H](O[C@@H]2O[C@H](C)[C@@H](O)[C@H](N)[C@@H]2O)C[C@@H]2O[C@](O)(C[C@@H](O)C[C@@H](O)[C@H](O)CC[C@@H](O)C[C@@H](O)CC(=O)O[C@H]1C)C[C@H](O)[C@H]2C(=O)O [Amphotericin B]
[1]
  mean zone of inhibition ± Standard deviation beyond well diameter: 21.7 ± 1.5 mm

## CC1(C)S[C@@H]2[C@H](NC(=O)[C@H](N)c3ccccc3)C(=O)N2[C@H]1C(=O)O [Ampicillin]
[2]
  mean zone of inhibition ± Standard deviation beyond well diameter: 21.0 ± 1.0 mm
[3]
  mean zone of inhibition ± Standard deviation beyond well diameter: 31.3 ± 1.5 mm

## Gentamicin
[4]
  mean zone of inhibition ± Standard deviation beyond well diameter: 20.3 ± 0.58 mm
